Publication PMC10272271, “MAM-2201 acute administration impairs motor, sensorimotor, prepulse inhibition, and memory functions in mice: a comparison with its analogue AM-2201” (Psychopharmacology, 2023)

Assays:
Format in all cases: in vivo, mouse
CD-1 male mice [1] = assay: Overall tactile response (vibrissae, corneal, pinnae reflexes); details: Mus musculus, ip; mice; value ± SEM
Experimental: For the overall study 234 mice were used. In sensorimotor (visual object, visual placing, acoustic, and overall tactile responses) tests for MAM-2201, experiments for each treatment dose (vehicle or 5 different MAM-2201 doses, 0.01, 0.1, 1, 3, and 6 mg/kg) used 8 mice (total mice used: 48) and for MAM-2201 with AM-251 pretreatment, experiments for each dose regimen (vehicle + AM-251 or MAM-2201 + AM-251, 6 mg/kg) used 16 mice. In the analysis of spontaneous locomotion (open field test) for MAM-2201, experiments for each treatment regimen (vehicle or 4 different MAM-2201 doses, 0.01, 0.1, 1, and 6 mg/kg) used 10 mice (total mice used: 50). In the PPI test for MAM-2201, experiments for each treatment (vehicle or 3 different MAM-2201 doses, 0.01, 0.1, and 1 mg/kg) used 10 mice (total mice used: 40), while for MAM-2201 experiments in the Novel Object Recognition (NOR) test for each treatment regimen (vehicle or 3 different MAM-2201 and vehicle or 3 different AM-2201 doses, 0.01, 0.1, and 1 mg/kg) used 10 mice (total mice used: 80). In the present study the effect of MAM-2201 on sensorimotor responses was investigated using a battery of behavioral tests widely used in studies of “safety-pharmacology,” that we routinely adopted in our laboratory, for the preclinical characterization of new molecules in rodents (Ossato et al. [2015]; Vigolo et al. [2015]; Bilel et al. [2020]). The voluntary and involuntary motor responses of the animal to different visual, acoustic, and tactile stimuli were evaluated according to the procedure described in our previous studies (Ossato et al. [2015]; Bilel et al. [2020]). To reduce the number of animals used, mice were evaluated in functional observational tests carried out in a consecutive manner according to the following time scheme: observation of visual object responses (frontal and lateral view), acoustic response, tactile response (vibrissae, corneal and pinnae reflexes), and visual placing response. Sensorimotor tests were measured at 10, 30, 60, 120, 180, 240, and 300 min after injections for the evaluation of the visual object, acoustic and the tactile response, and at 15, 45, 75, 135, 195, 255, and 315 min after injections for the evaluation of visual placing response. Behavioral tests were conducted in a thermostated (temperature: 20–22 °C, humidity: 45–55%) and light (150 lx) controlled room with a background noise of 40 ± 4 dB. […] The behavior of mice was videotaped by a camera (B/W USB Camera day & night with varifocal lens; Ugo Basile, Italy) placed at the top or on one side of the box and analyzed off-line by a different trained operator. […] Sensory gating was evaluated by analysis of the pre-pulse inhibition (PPI) of the acoustic startle reflex as previously described (Bilel et al. [2020]). […]

CD-1 male mice [2] = assay: Spontaneous locomotor activity (open field, ANY-maze)
Experimental: For the overall study 234 mice were used. In sensorimotor (visual object, visual placing, acoustic, and overall tactile responses) tests for MAM-2201, experiments for each treatment dose (vehicle or 5 different MAM-2201 doses, 0.01, 0.1, 1, 3, and 6 mg/kg) used 8 mice (total mice used: 48) and for MAM-2201 with AM-251 pretreatment, experiments for each dose regimen (vehicle + AM-251 or MAM-2201 + AM-251, 6 mg/kg) used 16 mice. In the analysis of spontaneous locomotion (open field test) for MAM-2201, experiments for each treatment regimen (vehicle or 4 different MAM-2201 doses, 0.01, 0.1, 1, and 6 mg/kg) used 10 mice (total mice used: 50). […] The voluntary and involuntary motor responses of the animal to different visual, acoustic, and tactile stimuli were evaluated according to the procedure described in our previous studies (Ossato et al. [2015]; Bilel et al. [2020]). To reduce the number of animals used, mice were evaluated in functional observational tests carried out in a consecutive manner according to the following time scheme: observation of visual object responses (frontal and lateral view), acoustic response, tactile response (vibrissae, corneal and pinnae reflexes), and visual placing response. […] Sensory gating was evaluated by analysis of the pre-pulse inhibition (PPI) of the acoustic startle reflex as previously described (Bilel et al. [2020]). […]

CD-1 male mice [3] = assay: Acoustic startle and pre-pulse inhibition (PPI) test

Cc1ccc(C(=O)c2cn(CCCCCF)c3ccccc23)c2ccccc12 [MAM-2201, 1-[(5-fluoropentyl)-1H-indol-3-yl](4-methyl-1-naphthalenyl) methanone]
ED50 (CD-1 male mice [1]): 1.861 ± 0.011 mg/kg | effect on immobility time (CD-1 male mice [2]; 1 and 6 mg/kg i.p., first hour): increased | time during which motor capacity was affected (CD-1 male mice [2]; open field test): ≤ 60 min | effect on startle amplitude (CD-1 male mice [3]; only at 1 mg/kg i.p., at 15 and 120 min): reduced | effect on PPI (prepulse startle intensity) (CD-1 male mice [3]; prepulse 68 dB, 15 min, 0.1 and 1 mg/kg i.p.): significant decrease | decrease of PPI (CD-1 male mice [3]; prepulse 68 dB, 120 min, 0.1 mg/kg i.p.): ~ 19% | decrease of PPI (CD-1 male mice [3]; prepulse 68 dB, 120 min, 1 mg/kg i.p.): ~40% | decrease of PPI (CD-1 male mice [3]; prepulse 75 dB, 15 min, 0.1 mg/kg i.p.): ~ 28% | decrease of PPI (CD-1 male mice [3]; prepulse 75 dB, 15 min, 1 mg/kg i.p.): ~ 41% | decrease of PPI (CD-1 male mice [3]; prepulse 75 dB, 120 min, 1 mg/kg i.p.): ~ 34% | decrease of PPI (CD-1 male mice [3]; prepulse 85 dB, 15 min, 0.1 mg/kg i.p.): ~ 19% | decrease of PPI (CD-1 male mice [3]; prepulse 85 dB, 15 min, 1 mg/kg i.p.): ~ 37% | decrease of PPI (CD-1 male mice [3]; prepulse 85 dB, 120 min, 0.1 mg/kg i.p.): ~ 19% | decrease of PPI (CD-1 male mice [3]; prepulse 85 dB, 120 min, 1 mg/kg i.p.): ~ 37%
